# Experimental data: patent publication US20170226507A1, “COORDINATE CONTROL OF PATHOGENIC SIGNALING BY THE MIR-130/301 FAMILY IN PULMONARY HYPERTENSION AND FIBROPROLIFERATIVE DISEASES” (The Brigham and Women's Hospital, Inc., priority 2014, published 2017)
# How the values were obtained:
# Format in all cases: cell-based, human
# PAECs [1] = experiment: Gene/miRNA expression in transfected or drug-treated PAECs (immunoblotting, RT-qPCR)
# Text: (§1) Pre-miRNA oligonucleotides (pre-miR-130a, pre-miR-204, pre-miR-424, and pre-miR-503 and negative control pre-miR-NC1 and premiR-NC2, Life Technologies), anti-miRNAs oligonucleotides (anti-miR-130a and anti-miR-NC, ThermoScientific), tiny LNA oligonucleotides (tiny-130: 5′-[…]-3′ (SEQ ID NO: 3), and tiny-NC 5′-[…]-3′ (SEQ ID NO: 51), Exiqon), siRNAs (PPARγ and scrambled control, Santa Cruz Biotechnology; HIF-1α, HIF-2α, and scrambled control, Life Technologies) were commercially purchased. PAECs and PASMCs were plated and transfected 24 h later at 70-80% confluence using pre-miRNA (5 nM), anti-miRNA (20 nM), tiny-LNA (20 nM) or siRNA (25 nM) with Lipofectamine 2000 reagent (Life Technologies), according to the manufacturers' instructions.
# Primary human pulmonary arterial endothelial cells (PAECs) were purchased and propagated in EGM-2 cell culture media (Lonza). Experiments were performed at passages 3 to 6. Primary human pulmonary arterial smooth muscle cells (PASMCs) were purchased and propagated in SmGM-2 cell culture media (Lonza). Experiments were performed at passages 3 to 9. HEK293T cells (American Type Culture Collection) were used and cultivated in DMEM containing 10% fetal bovine serum (FBS). Cells were cultured at 37° C. in a humidified 5% CO2 atmosphere. A modular hypoxia chamber at 0.2% oxygen, 94.8% nitrogen and 5% carbon dioxide was used during 24 h for hypoxic conditions. Cultured cells were exposed to recombinant human IL-1α at 10 ng·mL-1 (Peprotech). Recombinant human IL-6 (Peprotech) was used at 100 ng·mL-1. Rosiglitazone (Sigma) was used at 10 μM.
# Mature miRNA expression was evaluated using TaqMan MicroRNA Assays (Life Technologies/Applied Biosystems) and the Applied Biosystems 7900HT Fast Real Time PCR device (Life Technologies/Applied Biosystems). Expression levels were normalized to RNU48 or snoR55 for human or mouse experiments, respectively, and calculated using the comparative Ct method (2^−ΔΔCt) as we previously described (1).
# Messenger RNAs were reverse transcribed using the Multiscript RT kit (Life Technologies) to generate cDNA. cDNA was amplified via fluorescently labeled Taqman primer sets using an Applied Biosystems 7900HT Fast Real Time PCR device, as we previously described (1). Fold-change of RNA species was calculated using the formula (2^−ΔΔCt), normalized to actin expression.
# (§2) Cells were lysed in RIPA buffer (Santa Cruz Biotechnology) and the protein concentration determined using a Bradford assay (Biorad). Protein lysate ([…]) were resolved by SDS-PAGE and transferred onto a PVDF membrane (Biorad). Membranes were blocked in 5% non-fat milk in TN buffer (50 mM Tris-HCl pH 7.4, 150 mM NaCl) and incubated in the presence of the primary and then secondary antibodies. After washing in TN buffer containing 0.1% Tween, immunoreactive bands were visualized with the ECL system (Amersham Biosciences). […] Primary antibodies for STAT3 (#9139) and P-STAT3 (Tyr-705; #9145) were purchased from Cell Signaling. Primary antibodies against actin (ab 3280), α-smooth-muscle-actin (ab 32575), CD31 (ab28364), and PCNA (ab 29) were obtained from Abcam. Appropriate secondary antibodies (anti-rabbit and anti-mouse) coupled to HRP were used (Santa Cruz Biotechnology).
# Pre-miRNA oligonucleotides (pre-miR-130a and negative control pre-miR-NC1 and premiR-NC2), anti-miRNAs oligonucleotides (anti-miR-130a and anti-miR-NC), and custom designed tiny LNA oligonucleotides (tiny-130: 5′-[…]-3′ (SEQ ID NO: 3), and tiny-NC 5′-[…]-3′ (SEQ ID NO: 51)) were purchased from Life Technologies/Ambion, ThermoScientific/Dharmacon, and Exiqon, respectively. siRNAs for PPARγ and scrambled control were purchased from Santa Cruz Biotechnology. PAEC and PASMC were plated and transfected 24 h later at 70-80% confluence using pre-miRNA (5 nM), anti-miRNA (20 nM), tiny-LNA (20 nM) or siRNA (25 nM) and Lipofectamine 2000 reagent (Life Technologies), according to the manufacturers' instructions. […]
# PAECs [2] = experiment: Caspase 3/7 assay, PAECs
# Protocol: (§3) Caspase 3,7 activity was quantified using the Caspase-Glo 3/7 Assay (Promega), according to manufacturer's instructions. Briefly, cells were plated in triplicate in 96-well plates and transfected with the appropriate oligonucleotide. Forty-eight hours after transfection, cells were cultured in the presence or absence of serum for twenty-four hours. Cells were then incubated for 1 h with the caspase substrates, and luminescence was quantified.
# PAAFs = experiment: ECM remodeling experiment (naïve PAAFs plated on remodeled ECM)
# Protocol: After the different treatment cells were fixed with PBS/PFA 4% for 10 min and permeabilized with PBS/Triton 100×0.1% for 10 min. Then cells were incubated with anti-YAP1 (#4912; 1/100; Cell signaling) at 4° C. overnight. Secondary antibodies coupled with Alexa-594 (Life Technologies) were used at 1:500. Nuclei were counterstained with DAPI (Sigma).
# Following treatment, PAAFs were plated atop soft matrices (see below) in normal growth medium supplemented with 0.5% FBS. After three days, 10 ug/mL of puromycin was added to the growth medium for 48 hours to detach the cells from the matrix. Matrices were washed 3 times (PBS). Naïve PAAFs were then plated on top of these matrices supplemented with normal growth medium 0.5% FBS or harvested for assessment of collagen crosslinking (Picrosirius Red stain). Sixteen hours later, cells were harvested for immunofluorescence experiments or RNA extraction.
# Picrosirius Red stain was achieved through the use of 5 μm paraffin sections stained with 0.1% Picrosirius Red (Direct Red80, Sigma-Aldrich) and counterstained with Weigert's hematoxylin to reveal fibrillar collagen. The sections were then serially imaged using with an analyzer and polarizer oriented parallel and orthogonal to each other. Microscope conditions (lamp brightness, condenser opening, objective, zoom, exposure time, and gain parameters) were constant throughout the imaging of all samples. A minimal threshold was set on appropriate control sections for each experiment in which only the light passing through the orthogonally-oriented polarizers representing fibrous structures (i.e., excluding residual light from the black background) was included. The threshold was maintained for all images across all conditions within each experiment. The area of the transferred regions that was covered by the thresholded light was calculated and at least 10 sections/vessel per condition were averaged together (Image J software).
# PASMCs = experiment: Caspase 3/7 assay, PASMCs
# Protocol: as §3
# PAECs [3] = experiment: Proliferation of PAECs (cell counting, BrdU incorporation, PCNA)
# Text: as §1
# Exponentially growing cells were transfected, collected at the indicated times and counted.
# as §2
# [4] = transcripts 48 h after transfection
substance,measurement,setting,value
"tiny-LNA-130: fully LNA-modified tiny LNA oligonucleotide 5′-ATTGCACT-3′ (SEQ ID NO: 3) complementary to the seed region of the miR-130/301 family (all LNA, backbone and methylation of C not given here)",PPARγ expression,"PAECs [1]; immunoblotting, densitometry",increased
same,"downstream gene/subordinate miRNA alterations (PPARγ, apelin, miR-424, miR-503, FGF2)","PAECs [1]; normoxia or hypoxia, compared with anti-miR-130a",reversed these downstream gene/subordinate miRNA alterations to a greater extent than inhibition of miR-130a alone
same,"collagen, CTGF, and LOX",PAECs [1]; tiny-LNA-130: stiffness-mediated up-regulation,reversed
same,CCND1 expression,PAECs [1]; [4],decreased
same,"CDKN1A, CDKN1B and CDKN2A expression",PAECs [1]; [4],increased
same,"gene expression changes in VEGFA, EDN1 and NOS3","PAECs [1]; vs tiny-LNA-NC, transcript in hypoxia, protein in normoxia",reversed these gene expression changes
same,caspase 3/7 activity,PAECs [2]; 24 h serum deprivation,partially protected cells from caspase 3/7 induction
same,caspase 3/7 activity,PAECs [2]; serum-replete conditions,No significant modulation
same,collagen crosslinking of remodeled ECM,PAAFs; Picrosirius Red,reversed
same,"collagen, LOX, CTGF, and POU5F1/OCT4 in naïve cells plated on remodeled ECM",PAAFs; RT-qPCR,down-regulated
same,miR-130/301 in naïve cells plated on remodeled ECM,PAAFs; RT-qPCR,down-regulated
same,caspase 3/7 activity,PASMCs; 24 h serum deprivation,no significant modulation
same,caspase 3/7 activity,PASMCs; serum-replete conditions,No significant modulation
same,number of cells,PAECs [3]; counted each day during 3 days,greater decrease in the number of cells compared with anti-miR-130a
same,BrdU incorporation (proliferation),"PAECs [3]; exponentially growing, BrdU pulse 1 h",greater decrease in proliferation compared with anti-miR-130a
same,PCNA expression,PAECs [3]; immunoblot 48 hours after transfection,more substantial decrease
